# Data as given in patent US11154529B2, “Phosphaplatin liquid formulations” (Phosplatin Therapeutics Inc., priority 2016, dated 2021).
# Assays:
# Type in all cases: physicochemical
# [1] = Ready-to-use formulation stability at 2-8° C., 5 mg/mL (R,R)-pyrodach-2 in 10 mM Bicarbonate Buffer at pH 8.6, 10 mL vials
# [2] = Precipitation of (R,R)-pyrodach-2 dimer from 5 mg/mL ready-to-use formulation on storage at 2-8° C.; conditions: 5 mg/mL formulation per Example 6, initial dimer ~0.6 area %
# Method: • Transfer 4564.6 mg±0.5 mg of potassium phosphate dibasic, trihydrate to a 2-L volumetric flask. • Fill flask to approximately 75% volume with water, swirl as needed to dissolve all solids. • Volumetrically transfer 32.0 mL of 1N KOH to flask. • Dilute flask to volume with water and mix well. • Record pH of final solution. This is the diluent. • Transfer 7653.1 mg±0.5 mg of (R,R)-pyrodach-2 to a compounding vessel. • Transfer 1500 mL of the diluent to the vessel and stir to dissolve solids. • Record pH of final solution. • Pass entire solution through a 0.22 μm sterile filter membrane into a sterile collection vessel. • Calculate (R,R)-pyrodach-2 solution concentration
# [3] = Hydrolytic degradation of (R,R)-pyrodach-2 in aqueous solution; conditions: acidic aqueous conditions
# Text: Thus, simple dissolution of (R,R)-pyrodach-2 affords an acidic solution. […] At higher pHs, where the acid groups of (R,R)-pyrodach-2 are ionized, the solubility of (R,R)-pyrodach-2 increases. In addition, deprotonation of the acid groups in (R,R)-pyrodach-2 dramatically reduces the rate of hydrolytic degradation. The two pKa values of (R,R)-pyrodach-2 indicate that an aqueous solution of (R,R)-pyrodach-2 in the physiological pH range of 7.0-7.5 will have no buffering capacity. Thus, controlling the pH of an aqueous solution in the physiological pH range, much less the accurate and reproducible preparation of aqueous (R,R)-pyrodach-2 solutions in this pH range by pH adjustment of an aqueous solution of (R,R)-pyrodach-2 with hydroxide base, is extremely difficult. […] This presents a unique challenge as the pyrophosphate ligand in (R,R)-pyrodach-2 is kinetically labile in solution and can potentially undergo reaction with anions present in many buffers. Table 1 summarizes the decrease in potency measured by HPLC of aqueous 1 mg/mL (R,R)-pyrodach-2 solutions in a variety of buffers at ambient temperature.
smiles,measurement,setting,value
"O=P1(O)OP(=O)(O)[O][Pt]2([NH][C@@H]3CCCC[C@H]3[NH]2)[O]1 (stereo partly drawn) [(R,R)-pyrodach-2, (R,R)-trans-1,2-cyclohexanediamine-(dihydrogenpyrophosphato)platinum(II)]",Potency (Assay),[1]; 1 month,99.1%
same,Purity (% Area),[1]; 1 month,97.85%
same,Unknown Impurities RRT~0.29,[1]; 1 month,0.14%
same,Unknown Impurities RRT~0.35,[1]; 1 month,"ND (ND = Not Detected, or <0.05%)"
same,Unknown Impurities RRT~0.41,[1]; 1 month,0.05%
same,Unknown Impurities RRT~0.49,[1]; 1 month,0.55%
same,Unknown Impurities RRT~0.59,[1]; 1 month,0.08%
same,Unknown Impurities RRT~0.73,[1]; 1 month,1.14%
same,Unknown Impurities RRT~1.51,[1]; 1 month,"ND (ND = Not Detected, or <0.05%)"
same,Unknown Impurities RRT~2.82,[1]; 1 month,"ND (ND = Not Detected, or <0.05%)"
same,Unknown Impurities RRT~3.44,[1]; 1 month,"ND (ND = Not Detected, or <0.05%)"
same,pH,[1]; 1 month,8.73
same,Potency (Assay),[1]; 1 week,101.9%
same,Purity (% Area),[1]; 1 week,98.02%
same,Unknown Impurities RRT~0.29,[1]; 1 week,0.10%
same,Unknown Impurities RRT~0.35,[1]; 1 week,"ND (ND = Not Detected, or <0.05%)"
same,Unknown Impurities RRT~0.41,[1]; 1 week,"ND (ND = Not Detected, or <0.05%)"
same,Unknown Impurities RRT~0.49,[1]; 1 week,0.60%
same,Unknown Impurities RRT~0.59,[1]; 1 week,"ND (ND = Not Detected, or <0.05%)"
same,Unknown Impurities RRT~0.73,[1]; 1 week,1.11%
same,Unknown Impurities RRT~1.51,[1]; 1 week,"ND (ND = Not Detected, or <0.05%)"
same,Unknown Impurities RRT~2.82,[1]; 1 week,"ND (ND = Not Detected, or <0.05%)"
same,Unknown Impurities RRT~3.44,[1]; 1 week,"ND (ND = Not Detected, or <0.05%)"
same,pH,[1]; 1 week,8.57
same,Potency (Assay),[1]; 2 month,102.4%
same,Purity (% Area),[1]; 2 month,97.58%
same,Unknown Impurities RRT~0.29,[1]; 2 month,0.21%
same,Unknown Impurities RRT~0.35,[1]; 2 month,"ND (ND = Not Detected, or <0.05%)"
same,Unknown Impurities RRT~0.41,[1]; 2 month,0.11%
same,Unknown Impurities RRT~0.49,[1]; 2 month,0.62%
same,Unknown Impurities RRT~0.59,[1]; 2 month,0.15%
same,Unknown Impurities RRT~0.73,[1]; 2 month,1.03%
same,Unknown Impurities RRT~1.51,[1]; 2 month,"ND (ND = Not Detected, or <0.05%)"
same,Unknown Impurities RRT~2.82,[1]; 2 month,"ND (ND = Not Detected, or <0.05%)"
same,Unknown Impurities RRT~3.44,[1]; 2 month,0.06%
same,pH,[1]; 2 month,8.76
same,Potency (Assay),[1]; 2 week,100.5%
same,Purity (% Area),[1]; 2 week,97.99%
same,Unknown Impurities RRT~0.29,[1]; 2 week,0.12%
same,Unknown Impurities RRT~0.35,[1]; 2 week,"ND (ND = Not Detected, or <0.05%)"
same,Unknown Impurities RRT~0.41,[1]; 2 week,"ND (ND = Not Detected, or <0.05%)"
same,Unknown Impurities RRT~0.49,[1]; 2 week,0.63%
same,Unknown Impurities RRT~0.59,[1]; 2 week,0.06%
same,Unknown Impurities RRT~0.73,[1]; 2 week,1.14%
same,Unknown Impurities RRT~1.51,[1]; 2 week,"ND (ND = Not Detected, or <0.05%)"
same,Unknown Impurities RRT~2.82,[1]; 2 week,"ND (ND = Not Detected, or <0.05%)"
same,Unknown Impurities RRT~3.44,[1]; 2 week,"ND (ND = Not Detected, or <0.05%)"
same,pH,[1]; 2 week,8.65
same,Potency (Assay),[1]; 3 month,102.3%
same,Purity (% Area),[1]; 3 month,97.76%
same,Unknown Impurities RRT~0.29,[1]; 3 month,0.29%
same,Unknown Impurities RRT~0.35,[1]; 3 month,"ND (ND = Not Detected, or <0.05%)"
same,Unknown Impurities RRT~0.41,[1]; 3 month,0.13%
same,Unknown Impurities RRT~0.49,[1]; 3 month,0.53%
same,Unknown Impurities RRT~0.59,[1]; 3 month,0.15%
same,Unknown Impurities RRT~0.73,[1]; 3 month,0.89%
same,Unknown Impurities RRT~1.51,[1]; 3 month,0.06%
same,Unknown Impurities RRT~2.82,[1]; 3 month,0.05%
same,Unknown Impurities RRT~3.44,[1]; 3 month,"ND (ND = Not Detected, or <0.05%)"
same,pH,[1]; 3 month,8.95
same,Potency (Assay),[1]; 3 week,100.0%
same,Purity (% Area),[1]; 3 week,97.91%
same,Unknown Impurities RRT~0.29,[1]; 3 week,0.14%
same,Unknown Impurities RRT~0.35,[1]; 3 week,"ND (ND = Not Detected, or <0.05%)"
same,Unknown Impurities RRT~0.41,[1]; 3 week,"ND (ND = Not Detected, or <0.05%)"
same,Unknown Impurities RRT~0.49,[1]; 3 week,0.56%
same,Unknown Impurities RRT~0.59,[1]; 3 week,0.07%
same,Unknown Impurities RRT~0.73,[1]; 3 week,1.11%
same,Unknown Impurities RRT~1.51,[1]; 3 week,"ND (ND = Not Detected, or <0.05%)"
same,Unknown Impurities RRT~2.82,[1]; 3 week,"ND (ND = Not Detected, or <0.05%)"
same,Unknown Impurities RRT~3.44,[1]; 3 week,"ND (ND = Not Detected, or <0.05%)"
same,pH,[1]; 3 week,8.67
same,Potency (Assay),[1]; 4 month,103.5%
same,Purity (% Area),[1]; 4 month,98.07%
same,Unknown Impurities RRT~0.29,[1]; 4 month,0.15%
same,Unknown Impurities RRT~0.35,[1]; 4 month,"ND (ND = Not Detected, or <0.05%)"
same,Unknown Impurities RRT~0.41,[1]; 4 month,0.16%
same,Unknown Impurities RRT~0.49,[1]; 4 month,0.68%
same,Unknown Impurities RRT~0.59,[1]; 4 month,0.09%
same,Unknown Impurities RRT~0.73,[1]; 4 month,0.72%
same,Unknown Impurities RRT~1.51,[1]; 4 month,0.05%
same,Unknown Impurities RRT~2.82,[1]; 4 month,0.05%
same,Unknown Impurities RRT~3.44,[1]; 4 month,"ND (ND = Not Detected, or <0.05%)"
same,pH,[1]; 4 month,8.83
same,Potency (Assay),[1]; 6 month,100.4%
same,Purity (% Area),[1]; 6 month,97.56%
same,Unknown Impurities RRT~0.29,[1]; 6 month,0.23%
same,Unknown Impurities RRT~0.35,[1]; 6 month,"ND (ND = Not Detected, or <0.05%)"
same,Unknown Impurities RRT~0.41,[1]; 6 month,0.23%
same,Unknown Impurities RRT~0.49,[1]; 6 month,0.65%
same,Unknown Impurities RRT~0.59,[1]; 6 month,0.21%
same,Unknown Impurities RRT~0.73,[1]; 6 month,0.90%
same,Unknown Impurities RRT~1.51,[1]; 6 month,"ND (ND = Not Detected, or <0.05%)"
same,Unknown Impurities RRT~2.82,[1]; 6 month,"ND (ND = Not Detected, or <0.05%)"
same,Unknown Impurities RRT~3.44,[1]; 6 month,0.09%
same,pH,[1]; 6 month,8.84
same,Potency (Assay),[1]; 9 month,102.2%
same,Purity (% Area),[1]; 9 month,97.73%
same,Unknown Impurities RRT~0.29,[1]; 9 month,0.15%
same,Unknown Impurities RRT~0.35,[1]; 9 month,"ND (ND = Not Detected, or <0.05%)"
same,Unknown Impurities RRT~0.41,[1]; 9 month,0.33%
same,Unknown Impurities RRT~0.49,[1]; 9 month,0.58%
same,Unknown Impurities RRT~0.59,[1]; 9 month,0.24%
same,Unknown Impurities RRT~0.73,[1]; 9 month,0.43%
same,Unknown Impurities RRT~1.51,[1]; 9 month,0.05%
same,Unknown Impurities RRT~2.82,[1]; 9 month,0.13%
same,Unknown Impurities RRT~3.44,[1]; 9 month,0.16%
same,pH,[1]; 9 month,9.07
same,Potency (Assay),[1]; 12 month,100.3%
same,Purity (% Area),[1]; 12 month,96.64%
same,Unknown Impurities RRT~0.29,[1]; 12 month,0.13%
same,Unknown Impurities RRT~0.35,[1]; 12 month,0.05%
same,Unknown Impurities RRT~0.41,[1]; 12 month,0.47%
same,Unknown Impurities RRT~0.49,[1]; 12 month,0.64%
same,Unknown Impurities RRT~0.59,[1]; 12 month,0.27%
same,Unknown Impurities RRT~0.73,[1]; 12 month,0.98%
same,Unknown Impurities RRT~1.51,[1]; 12 month,"ND (ND = Not Detected, or <0.05%)"
same,Unknown Impurities RRT~2.82,[1]; 12 month,0.19%
same,Unknown Impurities RRT~3.44,[1]; 12 month,0.28%
same,pH,[1]; 12 month,8.97
same,Potency (Assay),[1]; Initial,100.3%
same,Purity (% Area),[1]; Initial,98.04%
same,Unknown Impurities RRT~0.29,[1]; Initial,0.11%
same,Unknown Impurities RRT~0.35,[1]; Initial,"ND (ND = Not Detected, or <0.05%)"
same,Unknown Impurities RRT~0.41,[1]; Initial,"ND (ND = Not Detected, or <0.05%)"
same,Unknown Impurities RRT~0.49,[1]; Initial,0.62%
same,Unknown Impurities RRT~0.59,[1]; Initial,"ND (ND = Not Detected, or <0.05%)"
same,Unknown Impurities RRT~0.73,[1]; Initial,1.05%
same,Unknown Impurities RRT~1.51,[1]; Initial,"ND (ND = Not Detected, or <0.05%)"
same,Unknown Impurities RRT~2.82,[1]; Initial,"ND (ND = Not Detected, or <0.05%)"
same,Unknown Impurities RRT~3.44,[1]; Initial,"ND (ND = Not Detected, or <0.05%)"
same,pH,[1]; Initial,8.60
same,time by which crystallization observed in all sample vials,[2],≤ 12 months
same,hydrolytic degradation,[3],rapidly undergoes hydrolytic degradation
